Measurements from patent US7223779B2, “Azasugar derivative and drug containing the same as the active ingredient” (Carna Biosciences Inc., priority 2002, dated 2007).

How the values were obtained:
[1] = system: epidermal hyperplasia in mice induced by the application of TPA; test: TPA-induced epidermal hyperplasia in mouse dorsal skin; format: in vivo; conditions: male BALB/c mice; applied to skin 5 min, 24 h and 48 h after TPA; doses 1, 10, 100 μg; skin excised at 72 h; FIG. 1
Procedure: After backs of male BALB/c mice were shaved, 10 μL of a TPA-acetone solution (0.1 mM) was applied to the dorsal skin surface in an area of about 1 cm^2. In the medicine-treated group, a volume of 20 μL of a solution prepared by dissolving the test compound in acetone was applied to the same area 5 minutes, 24 hours and 48 hours after TPA application. In the non-treated group, only TPA was applied. In the control group, acetone was applied instead of the TPA-acetone solution.
The mice were sacrificed and the skin tissues were excised 72 hours after TPA application. Then the tissues were fixed with formalin, the vertical sections including the center of the TPA- or acetone-treated area were prepared and embedded in paraffin according to the conventional method. And they were stained by hematoxylin-eosin after removing paraffin. The epidermal thickness was measured using a microscope.
In FIG. 1, the numeral in the ordinate represents the epidermal thickness (μm). A bar graph of TPA (−) represents the epidermal thickness of the control group and a bar graph of TPA represents the epidermal thickness of the non-treated group. The respective bar graphs of 1, 10 and 100 denote the epidermal thickness of the group wherein the test compound is administered at a dose of 1, 10 and 100 (μg/wound) of each test compound. […]

[2] = system: re-epithelialization of keratinocytes, mouse skin wound model; test: Mouse skin wound healing model, re-epithelialization of keratinocytes; format: in vivo; conditions: male BALB/c mice; 6 mm full-thickness wounds; applied once a day; assessed eight days after operation; FIG. 2
Procedure: Wound healing model was prepared in accordance with the method described by Tsuboi, et al. (J. Dermatol., 19, 673–675 (1992)). After backs of male BALB/c mice were shaved, two full-thickness round wounds (6 mm diameter) were prepared on the back of each mouse using a punch biopsy instrument. In medicine-treated group, immediately after the operation, a test compound suspended in 0.01M phosphate-buffered saline containing 1.5% sodium carboxymethyl cellulose (vehicle) was applied to each wound in a volume of 50 μL/wound. From the following day, the compound was repeatedly applied to each wound once a day for 7 days. In the control group, vehicle solution only was applied in the same manner. Eight days after the operation, mice were sacrificed and skin tissues containing wound area were removed. The tissues were fixed with a 10% neutral buffer formalin solution for one day and embedded in paraffin according to the conventional method. The cross-sections were made perpendicularly to the anterior-posterior axis. Keratinocytes in the specimen were stained by immuno histochemical staining method with an anti-keratin antibody after removing paraffin. Measurements of wound size (mm) and re-epithelialization of keratinocytes (mm) were performed by using an image-analyzing software. Re-epithelialization rate(%) of keratinocytes was calculated as follows with regard to each animal. […]

**Q.** What does the source list for `O=C(NO)[C@H]1[C@@H](O)[C@H](O)[C@@H](O)CN1S(=O)(=O)c1ccc(Oc2ccccc2)cc1` [Compound c, (2R,3R,4R,5S)-3,4,5-trihydroxy-1-(4′-phenoxybenzenesulfonyl)-piperidine-2-carboxylic Acid Hydroxamide]?
**A.** hyperplasia inhibitory activity (epidermal thickness) [1]: hyperplasia inhibitory activity; re-epithelialization rate (%) of keratinocytes inhibitory activity [2]: inhibitory activity
